pEC50, pIC50: −log10 of the molar value.
Tests used:
ATR = ATR (Homo sapiens (Human), UniProt Q13535); test: Cellular ATR inhibition, western blot of CHK1(S345) phosphorylation in hydroxyurea treated cells; type: cell-based; details: HT29 cells
Description: In addition to the selective system described above, Example compounds presented here were screened for their ability to inhibit intracellular ATR using a western blot assay to detect phosphorylation of the ATR substrate CHK1(S345) in hydroxyurea treated cells. HT29 cells are plated at 500,000 cells per well in 6-well plates in RPMI media (Sigma R6504) supplemented with 10% foetal bovine serum (Sigma F7524), Penicillin/Streptomycin solution diluted 1:100 (Gibco 15070-063), and fungizone (Gibco, 15290-018), and allowed to adhere overnight at 37° C. in 5% CO2. Compounds are then added to the cell media from a final concentration of 10 μM in 3-fold serial dilutions and the cells are incubated at 37° C. in 5% CO2. After 15 min, hydroxyurea (Sigma H8627) is added to a final concentration of 2.5 mM. After 30 min of treatment with hydroxyurea, the cells are washed in PBS, lysed adding 50 μl of in protein lysis buffer (50 mM Tris pH 7.5, 150 mM NaCl, 1% IGEPAL CO-630 (Sigma, Ref. 542334-100G-A), Phospho Stop (Roche, Ref. 04906837001) and Complete Mini EDTA free (Roche, Ref. 11836170001)). The protein content of the lysates was determined by the modified method of Bradford (Sigma, Ref. B6916). The proteins were resolved by SDS-PAGE and transferred to nitrocellulose membrane (VWR International Eurolab, Ref. 732-4007). The membranes were incubated overnight at 4° C. with antibodies specific for total CHK1 (Santa Cruz Biotechnology, sc-8404), phosphoserine-345 CHK1 (Cell Signaling Technology #2348) they were washed and then incubated with IRDye800 conjugated anti-mouse (Pierce/Cultek, 35521) and Alexa Fluor 680 goat anti-rabbit IgG secondary antibodies (Invitrogen, A21076). The bands were visualized and quantified using an Odyssey infrared imaging system (Li-Cor Biosciences). The percentage of phosphorylated CHK1 vs total CHK1 in cells treated with hydroxyurea was taken as hundred percent of phosphorylation. The percentage of CHK1 phosphorylation is finally plotted against concentration for each compound and EC50s for intracellular ATR inhibition are calculated using ActivityBase from IDBS.

mTOR = mTOR (Homo sapiens (Human), UniProt P42345); test: mTOR activity assay (LanthaScreen); type: biochemical
Description: The enzymatic mTOR activity was measured using a LanthaScreen™ kinase activity assay (Invitrogen). The enzyme was purchased from Invitrogen (PV4754), as well as the GFP-labelled substrate (4EBP1-GFP; PV4759) and the Tb-antip4EBP1(pThr46) antibody (PV4757). The assay was performed in 50 Mm HEPES buffer, pH 7.5, containing 1.5 mM MnCl2, 10 mM MgCl2, 1 mM EGTA, 2.5 mM DTT and 0.01% Tween-20. The concentration of the assay components were the following: 0.24 nM mTOR kinase, 400 nM 4EBP1-GFP, […] and serial dilutions of the compound (inhibitor) to be evaluated. After 1 h incubation at room temperature, 20 mM EDTA was used to stop the reaction and terbium-labelled antibody (4 nM) added to detect phosphorylated product. The antibody associates with the phosphorylated product resulting in an increased TR-FRET value. The TR-FRET value (a dimensionless number) was calculated as the ratio of the acceptor signal (GFP, emission at 520 nm) to the donor signal (terbium, emission at 495 nm).

DNA-PK = DNA-PK (Homo sapiens (Human), UniProt P78527); test: DNAPK activity assay (ADP Hunter Plus); type: biochemical; details: 75 μM ATP
Description: The kinase activity was measured by using the commercial ADP Hunter™ Plus assay available from DiscoveRx (#90-0083), which is a homogeneous assay to measure the accumulation of ADP, a universal product of kinase activity. The enzyme, DNA-PK was purchased from Promega (#V5811). The assay was done following the manufacturer recommendations with slight modifications: Mainly the kinase buffer was replace by 15 mM HEPES, pH 7.5, 10 mM MgCl2, 20 mM NaCl, 1 mM EGTA, 0.1 mg/mL BGG, 0.02% Tween 20. The DNA-PK was assayed in a titration experiment to determine the optimal protein concentration for the inhibition assay. To calculate the […] of the Compounds, serial 1:3 dilutions of the compounds were added to the enzyme at a fixed concentration (2 U/μL). The enzyme was preincubated with the inhibitor and 200 μM DNA substrate and then ATP was added to a final 75 μM concentration. Reaction was carried out for 1 hour at 37° C. Reagent A and B were sequentially added to the wells and plates were incubated for 30 min at RT. Fluorescence counts were read in a EnVision instrument (Perkin Elmer) with the recommended settings (550 and 590 nm as excitation and emission wavelengths, respectively).

PI3K (p110α/p85α) = PI3K (p110α/p85α) (Homo sapiens (Human), UniProt P42336); test: PI3K alpha activity assay (ADP Hunter Plus); type: biochemical; details: 50 μM ATP, 30 μM PIP2; read-out: PI3Kα IC50
Chain of PI3K (p110α/p85α) (P42336 whole entry): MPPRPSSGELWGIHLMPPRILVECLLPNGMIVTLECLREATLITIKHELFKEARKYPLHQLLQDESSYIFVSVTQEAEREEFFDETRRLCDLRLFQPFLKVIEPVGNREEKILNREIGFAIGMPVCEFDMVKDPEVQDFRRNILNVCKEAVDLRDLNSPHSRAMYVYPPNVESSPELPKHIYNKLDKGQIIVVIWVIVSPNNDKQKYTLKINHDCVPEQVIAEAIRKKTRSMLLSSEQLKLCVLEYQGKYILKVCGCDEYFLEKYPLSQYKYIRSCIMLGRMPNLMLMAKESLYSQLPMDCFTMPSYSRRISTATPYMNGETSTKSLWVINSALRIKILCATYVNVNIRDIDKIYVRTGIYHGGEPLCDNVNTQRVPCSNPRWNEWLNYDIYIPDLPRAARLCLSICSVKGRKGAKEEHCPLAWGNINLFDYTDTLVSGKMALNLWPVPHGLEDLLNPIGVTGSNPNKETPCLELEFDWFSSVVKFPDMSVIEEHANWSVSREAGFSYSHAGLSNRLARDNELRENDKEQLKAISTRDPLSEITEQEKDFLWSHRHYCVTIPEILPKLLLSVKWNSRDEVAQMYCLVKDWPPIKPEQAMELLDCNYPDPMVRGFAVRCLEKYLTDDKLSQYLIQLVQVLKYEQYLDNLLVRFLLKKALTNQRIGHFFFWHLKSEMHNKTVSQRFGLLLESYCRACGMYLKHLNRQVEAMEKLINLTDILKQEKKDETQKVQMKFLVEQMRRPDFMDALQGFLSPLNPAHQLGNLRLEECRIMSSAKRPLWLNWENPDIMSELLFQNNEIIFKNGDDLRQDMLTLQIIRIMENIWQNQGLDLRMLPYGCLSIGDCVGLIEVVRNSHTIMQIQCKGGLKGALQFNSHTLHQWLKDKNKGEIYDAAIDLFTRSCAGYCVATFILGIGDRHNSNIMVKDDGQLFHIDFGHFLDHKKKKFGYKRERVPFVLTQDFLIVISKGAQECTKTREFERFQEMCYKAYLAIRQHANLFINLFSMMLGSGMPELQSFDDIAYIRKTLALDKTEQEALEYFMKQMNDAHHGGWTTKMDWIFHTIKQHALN
Chain of PI3K (p110α/p85α) (P27986 whole entry partner): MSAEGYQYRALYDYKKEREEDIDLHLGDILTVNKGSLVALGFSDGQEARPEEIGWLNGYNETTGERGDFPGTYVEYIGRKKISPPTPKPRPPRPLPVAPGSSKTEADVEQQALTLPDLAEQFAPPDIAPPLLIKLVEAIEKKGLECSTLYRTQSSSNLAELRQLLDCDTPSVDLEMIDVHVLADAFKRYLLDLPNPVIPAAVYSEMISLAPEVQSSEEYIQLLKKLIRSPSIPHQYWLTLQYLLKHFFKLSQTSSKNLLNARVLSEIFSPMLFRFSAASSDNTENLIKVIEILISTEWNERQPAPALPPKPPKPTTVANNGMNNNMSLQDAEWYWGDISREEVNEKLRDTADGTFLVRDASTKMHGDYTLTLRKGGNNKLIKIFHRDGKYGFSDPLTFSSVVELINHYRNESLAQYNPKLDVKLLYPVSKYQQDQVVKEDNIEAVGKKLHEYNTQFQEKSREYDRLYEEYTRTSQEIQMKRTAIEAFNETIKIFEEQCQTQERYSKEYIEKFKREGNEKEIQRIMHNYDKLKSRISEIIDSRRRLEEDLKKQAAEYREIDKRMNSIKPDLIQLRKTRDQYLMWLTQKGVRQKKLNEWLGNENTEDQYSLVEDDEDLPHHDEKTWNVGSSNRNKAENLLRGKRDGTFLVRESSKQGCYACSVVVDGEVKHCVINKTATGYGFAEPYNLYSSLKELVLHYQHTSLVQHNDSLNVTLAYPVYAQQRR
Description: The kinase activity was measured by using the commercial ADP Hunter™ Plus assay available from DiscoveRx (#33-016), which is a homogeneous assay to measure the accumulation of ADP, a universal product of kinase activity. […] The reaction was carried out for 1 hour at 25° C. Reagent A and B were sequentially added to the wells and plates were incubated for 30 min at 37° C. Fluorescence counts were read in a Victor instrument (Perkin Elmer) with the recommended settings (544 and 580 nm as excitation and emission wavelengths, respectively).

Chain of ATR (Q13535 whole entry): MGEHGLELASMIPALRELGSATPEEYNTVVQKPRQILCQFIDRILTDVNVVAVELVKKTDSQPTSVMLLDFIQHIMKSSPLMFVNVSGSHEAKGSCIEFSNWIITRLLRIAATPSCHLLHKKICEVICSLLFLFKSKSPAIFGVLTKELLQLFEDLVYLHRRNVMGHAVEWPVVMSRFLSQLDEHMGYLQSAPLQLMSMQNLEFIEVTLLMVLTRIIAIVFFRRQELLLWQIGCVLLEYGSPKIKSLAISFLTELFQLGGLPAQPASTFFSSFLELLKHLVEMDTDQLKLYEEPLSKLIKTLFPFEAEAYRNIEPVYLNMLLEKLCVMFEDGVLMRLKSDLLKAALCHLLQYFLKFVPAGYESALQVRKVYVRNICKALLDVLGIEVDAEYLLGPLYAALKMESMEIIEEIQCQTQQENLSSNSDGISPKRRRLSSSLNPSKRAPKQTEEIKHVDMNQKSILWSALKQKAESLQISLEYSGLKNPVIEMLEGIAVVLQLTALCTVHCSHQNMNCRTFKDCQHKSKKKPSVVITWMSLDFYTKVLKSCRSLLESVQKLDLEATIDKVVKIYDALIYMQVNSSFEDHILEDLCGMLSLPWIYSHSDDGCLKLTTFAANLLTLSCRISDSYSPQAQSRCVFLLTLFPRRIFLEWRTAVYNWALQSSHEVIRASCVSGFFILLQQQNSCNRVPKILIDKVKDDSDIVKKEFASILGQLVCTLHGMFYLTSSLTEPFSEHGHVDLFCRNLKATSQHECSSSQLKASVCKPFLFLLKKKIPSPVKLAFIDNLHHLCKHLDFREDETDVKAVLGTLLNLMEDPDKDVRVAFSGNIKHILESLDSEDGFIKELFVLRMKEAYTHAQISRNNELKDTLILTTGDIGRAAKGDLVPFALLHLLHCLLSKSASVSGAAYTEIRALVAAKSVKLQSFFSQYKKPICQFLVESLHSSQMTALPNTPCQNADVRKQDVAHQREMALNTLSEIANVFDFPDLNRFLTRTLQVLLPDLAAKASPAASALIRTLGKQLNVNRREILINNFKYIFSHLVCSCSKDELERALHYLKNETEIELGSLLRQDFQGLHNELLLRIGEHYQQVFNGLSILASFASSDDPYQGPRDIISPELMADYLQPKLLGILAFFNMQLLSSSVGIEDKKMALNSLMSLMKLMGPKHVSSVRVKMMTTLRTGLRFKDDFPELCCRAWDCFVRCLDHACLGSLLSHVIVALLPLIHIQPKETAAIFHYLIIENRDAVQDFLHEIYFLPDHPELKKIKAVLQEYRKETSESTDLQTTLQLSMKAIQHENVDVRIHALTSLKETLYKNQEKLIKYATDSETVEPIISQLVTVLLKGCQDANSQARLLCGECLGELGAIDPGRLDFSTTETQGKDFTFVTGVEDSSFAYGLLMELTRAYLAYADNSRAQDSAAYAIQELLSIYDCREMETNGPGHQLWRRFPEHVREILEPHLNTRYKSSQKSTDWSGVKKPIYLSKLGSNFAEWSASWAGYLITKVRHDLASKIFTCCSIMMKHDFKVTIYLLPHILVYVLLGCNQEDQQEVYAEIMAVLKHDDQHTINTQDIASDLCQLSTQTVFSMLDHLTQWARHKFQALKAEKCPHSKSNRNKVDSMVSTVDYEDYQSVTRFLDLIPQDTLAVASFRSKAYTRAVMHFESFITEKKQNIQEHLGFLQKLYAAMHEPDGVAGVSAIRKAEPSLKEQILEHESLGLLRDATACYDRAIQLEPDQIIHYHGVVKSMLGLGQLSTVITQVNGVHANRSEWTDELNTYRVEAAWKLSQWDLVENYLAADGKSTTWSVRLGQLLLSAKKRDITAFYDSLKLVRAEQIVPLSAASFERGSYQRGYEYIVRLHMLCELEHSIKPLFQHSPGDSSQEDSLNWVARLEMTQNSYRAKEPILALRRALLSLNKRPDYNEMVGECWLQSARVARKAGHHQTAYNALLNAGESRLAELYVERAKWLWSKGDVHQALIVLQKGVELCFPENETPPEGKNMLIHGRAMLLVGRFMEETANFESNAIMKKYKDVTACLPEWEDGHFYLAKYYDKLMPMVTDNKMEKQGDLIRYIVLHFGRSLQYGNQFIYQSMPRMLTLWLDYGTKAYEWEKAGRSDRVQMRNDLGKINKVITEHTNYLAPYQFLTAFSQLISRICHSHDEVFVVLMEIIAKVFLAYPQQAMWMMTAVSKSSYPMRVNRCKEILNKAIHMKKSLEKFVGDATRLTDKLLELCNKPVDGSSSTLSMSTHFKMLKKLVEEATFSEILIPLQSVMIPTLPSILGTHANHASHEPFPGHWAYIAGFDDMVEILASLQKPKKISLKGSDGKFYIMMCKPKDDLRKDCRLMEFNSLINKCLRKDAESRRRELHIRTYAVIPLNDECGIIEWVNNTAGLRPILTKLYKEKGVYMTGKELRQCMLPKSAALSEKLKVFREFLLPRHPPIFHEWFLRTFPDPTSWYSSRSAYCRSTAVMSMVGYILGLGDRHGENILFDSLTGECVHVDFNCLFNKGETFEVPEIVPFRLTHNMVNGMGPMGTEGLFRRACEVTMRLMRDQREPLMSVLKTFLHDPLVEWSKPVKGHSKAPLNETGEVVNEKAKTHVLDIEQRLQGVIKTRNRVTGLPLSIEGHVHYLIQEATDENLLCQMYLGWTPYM

SMILES: CNc1nc2ccc(F)cc2n1-c1nc2c(c(C(C)(C)S(C)(=O)=O)n1)OC[C@@H]1COCCN21 [Example 83]
- pEC50 (ATR; hydroxyurea […]): 6.00 to 7.00
- pIC50 (mTOR): 5.61
- pIC50 (DNA-PK): 5.51
- pIC50 (PI3K (p110α/p85α)): 4.91

SMILES: CS(=O)(=O)C1(c2nc(-c3ccnc4[nH]ccc34)nc3c2OC[C@@H]2COCCN32)CCOCC1 [Example 30]
- pEC50 (ATR; hydroxyurea 2.5 mM): 6.00 to 7.00
- pIC50 (mTOR): 5.33
- pIC50 (DNA-PK): 4.60
- pIC50 (PI3K (p110α/p85α)): 5.60

SMILES: CNc1nc2ccccc2n1-c1nc2c(c(C3(S(C)(=O)=O)CCC3)n1)OC[C@@H]1COCCN21 [Example 92]
- pEC50 (ATR; hydroxyurea 2.5 mM): > 7.00
- pIC50 (mTOR): 5.91
- pIC50 (DNA-PK): 5.21
- pIC50 (PI3K (p110α/p85α)): 5.56

SMILES: CS(=O)(=O)C1(c2nc(-c3cc(C(F)(F)F)cc4[nH]ccc34)nc3c2OC[C@@H]2COCCN32)CC1 [Example 108]
- pEC50 (ATR; hydroxyurea 2.5 mM): 6.00 to 7.00
- pIC50 (mTOR): 6.24
- pIC50 (DNA-PK): 5.76
- pIC50 (PI3K (p110α/p85α)): 4.81

SMILES: CS(=O)(=O)C1(c2nc(-c3ccc(F)c4[nH]ccc34)nc3c2OC[C@@H]2COCCN32)CCOCC1 [Example 106]
- pEC50 (ATR; hydroxyurea 2.5 mM): < 6.00
- pIC50 (mTOR): 5.00
- pIC50 (DNA-PK): 5.94
- pIC50 (PI3K (p110α/p85α)): 4.30

SMILES: CC(C)(O)c1nc(-c2cccc3[nH]ccc23)nc2c1OC[C@@H]1COCCN21 [Example 44]
- pEC50 (ATR; hydroxyurea 2.5 mM): 6.00 to 7.00
- pIC50 (mTOR): 7.36
- pIC50 (DNA-PK): 5.51
- pIC50 (PI3K (p110α/p85α)): 5.93

SMILES: CNc1nc2ccc(Cl)cc2n1-c1nc2c(c(C(C)(C)S(C)(=O)=O)n1)OC[C@@H]1COCCN21 [Example 81]
- pEC50 (ATR; hydroxyurea […]): < 6.00
- pIC50 (mTOR): 5.26
- pIC50 (DNA-PK): 5.00
- pIC50 (PI3K (p110α/p85α)): 4.30

SMILES: COc1cc(-c2nc3c(c(C4(S(C)(=O)=O)CC4)n2)OC[C@@H]2COCCN32)c2cc[nH]c2c1 [Example 75]
- pEC50 (ATR; hydroxyurea 2.5 mM): 6.00 to 7.00
- pIC50 (mTOR): 7.03
- pIC50 (DNA-PK): 5.74
- pIC50 (PI3K (p110α/p85α)): 5.60

SMILES: CS(=O)(=O)C1(c2nc(-c3ccc(F)c4[nH]ccc34)nc3c2OC[C@@H]2COCCN32)CC1 [Example 110]
- pEC50 (ATR; hydroxyurea 2.5 mM): < 6.00
- pIC50 (mTOR): 5.00
- pIC50 (DNA-PK): 5.00
- pIC50 (PI3K (p110α/p85α)): 4.30

SMILES: CNc1nc2cc(Cl)ccc2n1-c1nc2c(c(C(C)(C)S(C)(=O)=O)n1)OC[C@@H]1COCCN21 [Example 80]
- pEC50 (ATR; hydroxyurea […]): < 6.00
- pIC50 (mTOR): 6.30
- pIC50 (DNA-PK): 5.00
- pIC50 (PI3K (p110α/p85α)): 4.88

SMILES: CC(C)(c1nc(-n2c(N3CCOCC3)nc3ccccc32)nc2c1OC[C@@H]1COCCN21)S(C)(=O)=O [Example 73]
- pEC50 (ATR; hydroxyurea […]): < 6.00
- pIC50 (mTOR): 5.00
- pIC50 (DNA-PK): 5.00
- pIC50 (PI3K (p110α/p85α)): 4.30

SMILES: CS(=O)(=O)C1(c2nc(-c3cccc4[nH]ccc34)nc3c2OC[C@@H]2COCCN32)CC1 [Example 6]
- pEC50 (ATR; hydroxyurea 2.5 mM): 6.00 to 7.00
- pIC50 (mTOR): 6.25
- pIC50 (DNA-PK): 5.34
- pIC50 (PI3K (p110α/p85α)): 5.35

— patent US9453031B2, “Chemical entities” (Fundación Centro Nacional de Investigaciones Oncológicas …, priority 2013, dated 2016)
